Measurements as given in patent EP4733298A1, “NOVEL TRPM4 ANTAGONISTS AND MEDICAL USE THEREOF” (Universitätsklinikum Hamburg-Eppendorf, priority 2024, dated 2026).

Experiments:
[1] = biological target: T1, 5-HT2B (h) (agonist radioligand) (Homo sapiens, UniProt P41595); assay: In vitro pharmacology (SafetyScreen44), 5-HT2B binding; conditions: Ref. CMP (±)DOI, read-out: Inhibiton (%) 5-HT2B (h) (agonist radioligand)
T1 construct: purchased Eurofins Cerep Safetyscreen 44 Panel; Study ID FR095-0009609
T1 sequence (P41595 whole entry): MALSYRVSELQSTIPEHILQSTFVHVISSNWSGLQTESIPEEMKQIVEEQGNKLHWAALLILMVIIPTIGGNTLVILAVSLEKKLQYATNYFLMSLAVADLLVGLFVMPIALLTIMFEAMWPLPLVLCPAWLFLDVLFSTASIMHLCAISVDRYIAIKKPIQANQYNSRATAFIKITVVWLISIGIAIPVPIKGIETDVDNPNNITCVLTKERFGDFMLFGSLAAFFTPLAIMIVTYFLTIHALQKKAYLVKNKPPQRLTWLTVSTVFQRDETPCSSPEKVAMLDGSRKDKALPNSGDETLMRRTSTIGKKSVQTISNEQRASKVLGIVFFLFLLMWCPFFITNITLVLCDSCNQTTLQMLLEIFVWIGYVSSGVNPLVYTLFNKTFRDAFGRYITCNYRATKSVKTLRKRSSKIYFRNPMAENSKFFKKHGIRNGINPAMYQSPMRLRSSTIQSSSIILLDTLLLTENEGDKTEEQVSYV
Description: (§1) In vitro assays were used to test absorption, distribution, metabolism, excretion and toxicity (ADMET) parameters for selected compounds. Compound absorption was assessed using parallel artificial membrane permeability (PAMPA) and Caco-2 cell permeability assays (cut-off criterion > 2 × 10^-6 cm s^-1). Compound toxicity was evaluated by measuring inhibition of cytochrome P450 enzymes (CYP), the potassium channel hERG, and TRPM5, with all parameters meeting acceptable criteria (Table 1). To assess potential off-target activity of the compounds that could be relevant for safety in humans, in vitro pharmacology tests using the commercially available and widely used SafetyScreen44 interaction panel^60 covering eight protein families were conducted (Tables 2 and 3). The lack of off-target activities on hERG channels and in vitro pharmacology profiles are promising and consistent with absence of toxicity during in vivo pharmacokinetic assessments, see below. Table 1. In vitro ADMET profile of Series 1 compounds.
(§2) Table 2. In vitro pharmacology profile of representative compounds disclosed herein, i.e. of benzoxazoles according to Formula (I) (CMP 343 and 354). Only inhibitions above 50% relative to the reference compound are shown and considered active. […]

[2] = biological target: T2, kappa (h) (KOP) (agonist radioligand) (Homo sapiens, UniProt P41145); assay: In vitro pharmacology (SafetyScreen44), kappa opioid receptor binding; conditions: Ref. CMP U50488, read-out: Inhibiton (%) kappa (h) (KOP) (agonist radioligand)
T2 construct: purchased Eurofins Cerep Safetyscreen 44 Panel; Study ID FR095-0009609
T2 sequence (P41145 whole entry): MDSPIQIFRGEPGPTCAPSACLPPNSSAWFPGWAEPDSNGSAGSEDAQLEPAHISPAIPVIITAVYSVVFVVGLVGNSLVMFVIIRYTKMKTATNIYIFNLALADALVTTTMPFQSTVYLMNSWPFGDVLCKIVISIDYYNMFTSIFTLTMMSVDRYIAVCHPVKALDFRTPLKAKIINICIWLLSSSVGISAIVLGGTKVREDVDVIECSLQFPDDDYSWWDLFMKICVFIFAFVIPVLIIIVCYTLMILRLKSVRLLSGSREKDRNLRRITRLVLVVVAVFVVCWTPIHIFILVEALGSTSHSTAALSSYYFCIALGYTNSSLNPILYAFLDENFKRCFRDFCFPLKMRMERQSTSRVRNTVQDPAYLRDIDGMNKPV
Description: as §1, §2

[3] = biological target: T3, dopamine transporter (h) (antagonist radioligand) (Homo sapiens, UniProt Q01959); assay: In vitro pharmacology (SafetyScreen44), dopamine transporter binding; conditions: Ref. CMP BTCP, read-out: Inhibiton (%) dopamine transporter (h) (antagonist radioligand)
T3 construct: purchased Eurofins Cerep Safetyscreen 44 Panel; Study ID FR095-0009609
T3 sequence (Q01959 whole entry): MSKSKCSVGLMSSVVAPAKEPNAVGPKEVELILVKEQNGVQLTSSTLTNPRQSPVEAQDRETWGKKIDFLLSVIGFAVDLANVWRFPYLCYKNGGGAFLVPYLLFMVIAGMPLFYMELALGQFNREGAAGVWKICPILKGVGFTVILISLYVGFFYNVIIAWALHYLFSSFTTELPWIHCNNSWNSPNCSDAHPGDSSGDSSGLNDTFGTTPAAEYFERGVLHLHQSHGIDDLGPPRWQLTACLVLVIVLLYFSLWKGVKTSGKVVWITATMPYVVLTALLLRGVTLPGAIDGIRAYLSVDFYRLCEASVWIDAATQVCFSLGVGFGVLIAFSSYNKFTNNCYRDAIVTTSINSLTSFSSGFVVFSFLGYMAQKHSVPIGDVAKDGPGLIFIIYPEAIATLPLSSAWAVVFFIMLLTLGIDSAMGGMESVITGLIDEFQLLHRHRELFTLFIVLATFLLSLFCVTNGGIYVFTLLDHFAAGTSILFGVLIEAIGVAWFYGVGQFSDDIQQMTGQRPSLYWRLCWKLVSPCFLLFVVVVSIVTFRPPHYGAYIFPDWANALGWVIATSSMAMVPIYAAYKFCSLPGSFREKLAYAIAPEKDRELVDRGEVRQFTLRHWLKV
Description: as §1, §2

COX1 (h) = biological target: T4, COX1 (h) (Homo sapiens, UniProt P23219); assay: In vitro pharmacology (SafetyScreen44), COX1; assay type: biochemical; conditions: Ref. CMP Diclofenac, read-out: Inhibiton (%) COX1 (h)
T4 construct: purchased Eurofins Cerep Safetyscreen 44 Panel; Study ID FR095-0009609
T4 sequence (P23219 24-599): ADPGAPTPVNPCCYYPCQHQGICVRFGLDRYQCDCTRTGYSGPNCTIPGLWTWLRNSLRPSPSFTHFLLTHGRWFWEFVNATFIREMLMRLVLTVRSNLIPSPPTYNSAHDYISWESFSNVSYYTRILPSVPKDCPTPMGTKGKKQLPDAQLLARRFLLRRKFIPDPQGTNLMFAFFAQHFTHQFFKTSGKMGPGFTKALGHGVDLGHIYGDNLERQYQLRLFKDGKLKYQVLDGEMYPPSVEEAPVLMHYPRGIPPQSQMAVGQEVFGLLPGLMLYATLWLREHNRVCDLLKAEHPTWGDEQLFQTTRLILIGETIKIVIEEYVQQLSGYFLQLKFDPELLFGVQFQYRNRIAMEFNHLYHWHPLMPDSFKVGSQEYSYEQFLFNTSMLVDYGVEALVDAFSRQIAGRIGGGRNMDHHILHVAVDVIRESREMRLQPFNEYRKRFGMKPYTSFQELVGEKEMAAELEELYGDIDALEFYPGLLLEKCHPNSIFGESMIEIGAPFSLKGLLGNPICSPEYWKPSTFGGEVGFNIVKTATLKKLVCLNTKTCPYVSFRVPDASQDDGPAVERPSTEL
Description: as §1, §2

[4] = biological target: T5, norepinephrine transporter (h) (antagonist radioligand) (Homo sapiens, UniProt P23975); assay: In vitro pharmacology (SafetyScreen44), norepinephrine transporter binding; conditions: Ref. CMP protriptyline, read-out: Inhibiton (%) norepinephrine transporter (h) (antagonist radioligand)
T5 construct: purchased Eurofins Cerep Safetyscreen 44 Panel; Study ID FR095-0009609
T5 sequence (P23975 whole entry): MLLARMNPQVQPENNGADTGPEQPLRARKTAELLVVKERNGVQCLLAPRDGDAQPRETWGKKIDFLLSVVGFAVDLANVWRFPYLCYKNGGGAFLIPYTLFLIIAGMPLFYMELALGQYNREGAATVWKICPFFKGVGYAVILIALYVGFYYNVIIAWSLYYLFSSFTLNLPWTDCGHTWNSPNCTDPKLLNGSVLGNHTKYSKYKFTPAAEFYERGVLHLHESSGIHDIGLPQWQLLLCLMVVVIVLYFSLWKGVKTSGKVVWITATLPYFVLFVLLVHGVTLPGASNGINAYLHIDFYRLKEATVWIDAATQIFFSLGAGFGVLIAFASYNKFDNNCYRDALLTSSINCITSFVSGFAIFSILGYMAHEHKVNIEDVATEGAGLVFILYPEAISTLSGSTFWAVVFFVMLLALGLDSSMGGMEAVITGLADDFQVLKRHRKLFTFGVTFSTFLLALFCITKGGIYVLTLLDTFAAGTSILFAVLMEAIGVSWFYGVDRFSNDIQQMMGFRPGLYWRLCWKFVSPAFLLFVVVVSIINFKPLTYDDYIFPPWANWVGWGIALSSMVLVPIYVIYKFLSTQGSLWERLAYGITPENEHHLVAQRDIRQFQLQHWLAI
Description: as §1, §2

[5] = biological target: T6, 5-HT2A (h) (agonist radioligand) (Homo sapiens, UniProt P28223); assay: In vitro pharmacology (SafetyScreen44), 5-HT2A binding; conditions: Ref. CMP (±)DOI, read-out: Inhibiton (%) 5-HT2A (h) (agonist radioligand)
T6 construct: purchased Eurofins Cerep Safetyscreen 44 Panel; Study ID FR095-0009609
T6 sequence (P28223 whole entry): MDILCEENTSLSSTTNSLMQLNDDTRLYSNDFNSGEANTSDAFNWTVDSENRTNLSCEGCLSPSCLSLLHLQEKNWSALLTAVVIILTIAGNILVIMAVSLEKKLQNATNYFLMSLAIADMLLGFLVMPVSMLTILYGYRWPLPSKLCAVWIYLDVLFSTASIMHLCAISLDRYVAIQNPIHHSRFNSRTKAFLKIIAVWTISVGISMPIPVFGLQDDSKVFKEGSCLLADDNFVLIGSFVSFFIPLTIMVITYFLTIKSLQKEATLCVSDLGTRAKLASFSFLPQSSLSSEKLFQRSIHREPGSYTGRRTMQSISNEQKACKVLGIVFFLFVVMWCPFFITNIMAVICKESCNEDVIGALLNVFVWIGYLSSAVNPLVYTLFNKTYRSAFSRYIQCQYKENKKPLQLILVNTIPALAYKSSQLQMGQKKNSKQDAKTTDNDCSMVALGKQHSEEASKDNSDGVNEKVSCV
Description: as §1, §2

human TRPM4 = biological target: T7, human TRPM4 (Homo sapiens, UniProt Q8TD43); assay: QPatch assay (automated patch clamp), TRPM4; assay type: cell-based; conditions: human TRPM4-expressing HEK293 cells, read-out: TRP M4 IC50
T7 construct: host or cells: HEK293, stably expressing
T7 sequence (Q8TD43 whole entry): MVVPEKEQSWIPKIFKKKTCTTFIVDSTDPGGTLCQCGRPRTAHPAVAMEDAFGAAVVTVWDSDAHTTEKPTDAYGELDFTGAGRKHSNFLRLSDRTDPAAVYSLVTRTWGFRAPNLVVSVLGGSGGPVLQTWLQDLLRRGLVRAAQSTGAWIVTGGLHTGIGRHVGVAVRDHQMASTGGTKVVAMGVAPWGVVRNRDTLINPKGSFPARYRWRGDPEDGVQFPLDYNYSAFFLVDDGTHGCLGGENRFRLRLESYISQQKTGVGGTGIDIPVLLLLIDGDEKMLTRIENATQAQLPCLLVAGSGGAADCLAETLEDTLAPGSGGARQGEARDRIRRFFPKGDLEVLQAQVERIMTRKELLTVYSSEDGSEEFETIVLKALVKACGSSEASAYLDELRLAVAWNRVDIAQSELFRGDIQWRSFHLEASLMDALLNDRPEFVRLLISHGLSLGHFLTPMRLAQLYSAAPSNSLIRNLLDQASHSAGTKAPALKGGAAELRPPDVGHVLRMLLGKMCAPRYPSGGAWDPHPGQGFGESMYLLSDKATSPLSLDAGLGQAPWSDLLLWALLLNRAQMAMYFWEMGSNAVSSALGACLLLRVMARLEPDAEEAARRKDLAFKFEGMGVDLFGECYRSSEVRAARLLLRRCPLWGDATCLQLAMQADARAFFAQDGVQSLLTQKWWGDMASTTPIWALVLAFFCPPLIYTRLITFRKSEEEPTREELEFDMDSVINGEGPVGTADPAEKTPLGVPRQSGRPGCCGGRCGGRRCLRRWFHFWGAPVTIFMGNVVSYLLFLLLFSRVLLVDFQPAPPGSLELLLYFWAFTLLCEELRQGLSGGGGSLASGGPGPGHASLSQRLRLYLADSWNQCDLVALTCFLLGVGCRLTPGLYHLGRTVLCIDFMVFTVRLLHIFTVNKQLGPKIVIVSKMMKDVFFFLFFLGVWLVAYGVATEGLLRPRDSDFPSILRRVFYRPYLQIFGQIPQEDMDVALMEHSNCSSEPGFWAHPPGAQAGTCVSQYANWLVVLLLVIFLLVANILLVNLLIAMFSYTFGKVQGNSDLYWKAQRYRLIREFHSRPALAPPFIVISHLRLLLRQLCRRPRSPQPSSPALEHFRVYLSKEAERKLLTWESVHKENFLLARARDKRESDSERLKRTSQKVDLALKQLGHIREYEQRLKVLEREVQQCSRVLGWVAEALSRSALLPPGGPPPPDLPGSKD
Description: QPatchHTX, an automated electrophysiology platform, was used in single hole mode. One day before use human TRPM4- or TRPM5-expressing HEK293 cells were seeded in a T75 flask at a density of 53k cells per cm^2 and at passages < 23. […] The extracellular solution was (in mM): CaCl2 (7), MgCl2 (2), KCl (5), HEPES (10), NaCl (70), NMDG (70); pH 7.4 with NaOH. The intracellular solution was (in mM): HEPES (10), NMDG (100), NaCl (50), EGTA (20), MgCl2 (1), CaCl2 (21); pH 7.2 with HCl. […] This protocol was repeated every 7 seconds. […] FFA was used as reference compound and applied cumulatively with each concentration incubating at a minimum of 20 voltage protocol runs (140 seconds) with the current after addition of FFA being calculated as full block. […] Each compound was measured at least 3 time independently.

SMILES	inhibition at 5 µM [1] [%]	inhibition at 5 µM [2] [%]	inhibition at 5 µM [3] [%]	inhibition at 5 µM (COX1 (h)) [%]	inhibition at 5 µM [4] [%]	inhibition at 5 µM [5] [%]	IC50 (human TRPM4) [nM]
Fc1cccc(-c2ccccc2NCc2nc3ccccc3o2)c1 [CMP343]	70	63	70	56	78	51	–
Cc1noc(-c2csc(S(=O)(=O)Nc3ccccc3C(F)(F)F)c2)c1C [CMP157]	–	–	–	–	–	–	630
Cc1ccc(-c2ccccc2NCc2nc3ccccc3o2)s1 [CMP354]	65	–	64	–	74	73	–
